Values of other authors, collected in patent US8362077B2, “Chemical compositions for skin care emulsions and heavy duty hand cleansers” (Pibed Limited, priority 2008, dated 2013).
Read-outs that look alike come from different tables or passages of the source.

Assays:
Staphylococcus aureus = conditions: low concentrations (0.5 to 2 mM)
Microsporum gypseum [1] = conditions: 10% in Vaseline petroleum jelly, topical, daily for 3 weeks
Microsporum gypseum [2] = conditions: M. gypseum
Lactobacillus fermentum = conditions: flow cytometry

| SMILES | MIC (Microsporum gypseum [2]) | MIC (Microsporum gypseum [2]; positive control) [µg/mL] | Susceptibility to ciprofloxacin, clindamycin, erythromycin, gentamicin, tetracycline and vancomycin (Staphylococcus aureus) | Hair culture test (Microsporum gypseum [1]) | Histopathologic examination of skin tissues (Microsporum gypseum [1]) | Skin lesion scoring (Microsporum gypseum [1]) | Sensitization to polymyxin B (Escherichia coli) | Intracellular accumulation of ethidium bromide by live cells (Lactobacillus fermentum) |
| --- | --- | --- | --- | --- | --- | --- | --- | --- |
| CC(C)=CCC[C@](C)(O)C1CC=C(C)CC1 (some centres unmarked) [bisabolol] | – | – | enhanced the susceptibility | – | – | – | – | promoted the intracellular accumulation |
| CC(C)=CCC/C(C)=C/CC1CCCC1=O (centres unmarked) [apritone] | – | – | enhanced the susceptibility | – | – | – | – | promoted the intracellular accumulation |
| CC(C)=CCCC(C)=CCCC(C)=CCO [farnesol] | – | – | – | – | – | – | sensitized Escherichia coli to polymyxin B | promoted the intracellular accumulation |

Further lines, with some results ahead:

| MIC (Microsporum gypseum [2]) | MIC (Microsporum gypseum [2]; positive control) [µg/mL] | SMILES | Susceptibility to ciprofloxacin, clindamycin, erythromycin, gentamicin, tetracycline and vancomycin (Staphylococcus aureus) | Hair culture test (Microsporum gypseum [1]) | Histopathologic examination of skin tissues (Microsporum gypseum [1]) | Skin lesion scoring (Microsporum gypseum [1]) | Sensitization to polymyxin B (Escherichia coli) | Intracellular accumulation of ethidium bromide by live cells (Lactobacillus fermentum) |
| --- | --- | --- | --- | --- | --- | --- | --- | --- |
| 0.5-2% | – | C=CC(C)(O)CCC=C(C)CCC=C(C)C (centres unmarked) [nerolidol, 3,7,11-trimethyl-1,6,10-dodecatrien-3-ol] | enhanced the susceptibility | improved the skin lesions | lower degree of hyperkeratosis and inflammatory cell infiltration than the positive control | clinically effective at improving the lesion during the first week of application | sensitized Escherichia coli to polymyxin B | promoted the intracellular accumulation |
| – | 4 to 16 | Clc1ccc(COC(Cn2ccnc2)c2ccc(Cl)cc2Cl)cc1 (centres unmarked) [econazole] | – | – | – | – | – | – |
| 0.01-0.03% | – | C=CCc1ccc(O)c(OC)c1 [eugenol] | – | – | lower degree of hyperkeratosis and inflammatory cell infiltration than the positive control | clinically effective at improving the lesion during the first week of application | – | – |
